Patent publication US11719711B2, “Compositions and methods for detecting and/or treating inflammation” (THE GENERAL HOSPITAL CORPORATION, priority 2013, dated 2023)

What was measured:
[1] = tested on: pro-inflammatory chemokine mRNA expression in MDCK-C11 cells; assay: Quantitative PCR of pro-inflammatory mediators in MDCK-C11 cells; type: cell-based, Canine
Method: Total RNA was isolated from cells using RNeasy micro kit (Qiagen, Valencia, Calif.) and from tissues using RNeasy Mini kit, as described previously (36). DNase I digestion was performed using RNase-Free DNase Set (Qiagen) according to the manufacturer's instructions. All reverse transcription (RT) and PCR reagents were from Applied Biosystems (Foster City, Calif.). Reverse-transcription was performed for 1 h at 42° C. in a final volume of 50 μl with 1× buffer II, 5 mM MgCl2, 1.0 mM each dNTP, 1 U/μl RNase inhibitor, 2.5 μM random hexamers, and 2.5 U/μl MuLV reverse transcriptase. PCR was performed on RT products. For end point PCRs, reaction mixtures consisted of a 20 μl final volume containing 2 μl template, 1.25 units AmpliTaq Gold DNA polymerase, lx buffer II, 1.5 mM MgCl2, 1.0 mM each dNTP, and 0.5 μM forward and reverse oligonucleotide primers. The following parameters were used for PCR: 8 min at 95° C. to activate the polymerase, 35 cycles of melting for 30 s at 95° C., annealing for 30 s at 60° C., extension for 30 s at 72° C., and a final extension for 10 min at 72° C. The amplification products were visualized by electrophoresis on a 1-2% agarose gel containing GelStar stain (Lonza, Rockland, Me.).
Real Time PCR was performed with a 7300 Real Time PCR system (Applied Biosystems). Amplification products were detected using the Power SYBR Green PCR master mix (Applied Biosystems), according to the manufacturer's instructions. Standard-curve relative quantifications were performed and relative values of each sample were normalized to GAPDH values. Samples were analyzed in triplicates for each experiment.
MDCK-C11 cells were cultured at 37° C. in a 5% CO2-95% O2 mix in DMEM (Invitrogen) supplemented with 2 mM glutamine, 10% fetal bovine serum (Invitrogen), penicillin (100 U/ml), and streptomycin (100 μg/ml) (Invitrogen). Prior to any treatment, cells were serum starved for 24 hours. For cell surface biotinylation assays, cells were either grown to confluence on plastic dishes or on filters. Biotinylation was performed as described previously (75). Briefly cells were incubated with 1 mg/ml of biotin (Thermo Scientific, Pittsburgh, Pa.) in PBS pH 8 on ice for 1 h. The excess biotin was quenched with 100 mM glycine and cells were either further processed for immunostaining or lysed in lysis buffer [150 mM NaCl, 5 mM EDTA, 50 mM Tris/HEPES, pH 7.5; 1% (vol/vol) Triton X-100] containing protease and phosphatase inhibitors (Complete Mini EDTA free, PhosSTOP, Roche Diagnostics, Laval, Canada), for 20 min at 4° C. Total protein expression was determined in 2-5 μg of proteins from the total cell extracts. 50-100 μg of cell lysate proteins were incubated with neutravidin beads (Thermo Scientific) overnight at 4° C. […]

P2Y14 [2] = target: T1, P2Y14 (Canis lupus familiaris, UniProt A0A8I3S656); details: MDCK-C11 cells, PPTN 10 μM pre-treatment 30 minutes, 100 μM UDP-glucose
T1 sequence (A0A8I3S656 1-340): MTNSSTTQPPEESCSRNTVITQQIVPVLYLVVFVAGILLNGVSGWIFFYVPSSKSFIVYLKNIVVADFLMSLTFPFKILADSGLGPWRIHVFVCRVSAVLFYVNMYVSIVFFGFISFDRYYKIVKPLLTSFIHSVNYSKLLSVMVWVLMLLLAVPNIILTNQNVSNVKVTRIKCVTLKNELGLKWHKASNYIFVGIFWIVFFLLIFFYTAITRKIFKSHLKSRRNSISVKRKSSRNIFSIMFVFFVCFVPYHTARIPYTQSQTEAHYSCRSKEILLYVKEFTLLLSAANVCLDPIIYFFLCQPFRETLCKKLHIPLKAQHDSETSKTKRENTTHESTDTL

P2Y14 [3] = target: T2, P2Y14 (Mus musculus, UniProt Q9ESG6); assay: ERK1/2 phosphorylation in FACS isolated EGFP(+) intercalated cells (immunoblot); type: cell-based; set-up: using total membranes separated from FACS isolated EGFP(+) cells and EGFP(−) cells; endogenous in cells; host or cells: EGFP(+) intercalated cells freshly isolated by FACS from kidneys of B1-EGFP transgenic mice; details: with PPTN
T2 sequence (Q9ESG6 1-338): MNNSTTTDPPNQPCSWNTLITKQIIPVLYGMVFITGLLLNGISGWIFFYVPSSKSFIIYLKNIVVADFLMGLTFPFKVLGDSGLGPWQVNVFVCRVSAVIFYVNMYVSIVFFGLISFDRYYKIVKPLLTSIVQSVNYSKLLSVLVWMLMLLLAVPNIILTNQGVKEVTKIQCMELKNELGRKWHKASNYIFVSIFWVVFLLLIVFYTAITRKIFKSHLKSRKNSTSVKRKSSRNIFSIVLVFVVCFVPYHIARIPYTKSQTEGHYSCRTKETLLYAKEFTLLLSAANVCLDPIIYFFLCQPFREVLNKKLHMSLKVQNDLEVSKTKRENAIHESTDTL
Method: Mice were anesthetized using pentobarbital sodium (50 mg/kg body, ip, Nembutal, Abbott Laboratories, Abbott Park, Ill.). The blood was flushed out of the organs by perfusing the animals with a phosphate-buffered saline (PBS) through the cardiac left ventricle at a constant flow rate of 17 ml/min. Kidneys were excised and sliced, and some kidneys were microdissected to separate the cortex from the medulla. Tissues were then minced immediately with scissors in RPMI 1640 medium (Invitrogen, Grand Island, N.Y.) containing 1.0 mg/ml collagenase type I (Invitrogen), 1.0 mg/ml collagenase type II (Sigma Aldrich) and 2 mg/ml hyaluronidase (Sigma Aldrich), and digested for 45 min at 37° C. A 40-μm-nylon mesh was used to remove undigested material following tissue digestion. Cells were then washed once with RPMI 1640 medium and once with a calcium-free PBS. EGFP-positive (EGFP(+)) and negative (EGFP(−)) cells were isolated immediately by FACS, based on their green fluorescence intensity, as described previously (36). Cell isolation was performed at the MGH flow cytometry core facility using a modified FACS Vantage cell sorter (BD Biosciences, San Jose, Calif.). FACS isolated samples were collected in PBS and used without delay for subsequent treatment and/or cell fractionation, protein and RNA isolation, or imaging. […]

P2Y14 [4] = target: T1, P2Y14; assay: [3H]UDP-glucose dose-displacement binding to MDCK-C11 membranes; set-up: endogenous in cells; host or cells: MDCK-C11 cells (Madin-Darby Canine Kidney subclone C11), not transfected; species or system Canine; details: MDCK-C11 membranes 15 μg, [3H]UDP-glucose 3 nM, 3 hours 22° C., increasing concentrations (ATP up to 10 μM)
Method: Incubation was terminated by the addition of ice-cold 50 mM Tris/HCl pH 7.4, 1 mM EDTA, 5 mM MgCl2 and was followed immediately by filtration under vacuum through Gelman A/E glass filters (Pall life science, An Arbor, Mich.) pre-soaked in binding buffer. The filters were rinsed twice before the addition of 5 ml of scintillation fluid (OpticFluor, Groninge, The Netherlands). Receptor-bound radioactivity was measured using liquid scintillation analyzer Tricarb 2200 CA from Parckard. All assays were performed in triplicate. […] Incubations were stopped by the addition of ice-cold buffer and receptor-bound radioactivity was determined as described above. The equilibrium dissociation constant (Kd) and the capacity of binding in dose-displacement studies were calculated using a scatchard plot and are expressed as the mean±SD. Statistical analysis were performed using the unpaired Student t-test.

P2Y14 [5] = target: T2, P2Y14; details: EGFP(+) cell membranes, saturating concentration 10^−5 M unlabeled ligand
Method: Mice were anesthetized using pentobarbital sodium (50 mg/kg body, ip, Nembutal, Abbott Laboratories, Abbott Park, Ill.). The blood was flushed out of the organs by perfusing the animals with a phosphate-buffered saline (PBS) through the cardiac left ventricle at a constant flow rate of 17 ml/min. Kidneys were excised and sliced, and some kidneys were microdissected to separate the cortex from the medulla. Tissues were then minced immediately with scissors in RPMI 1640 medium (Invitrogen, Grand Island, N.Y.) containing 1.0 mg/ml collagenase type I (Invitrogen), 1.0 mg/ml collagenase type II (Sigma Aldrich) and 2 mg/ml hyaluronidase (Sigma Aldrich), and digested for 45 min at 37° C. A 40-μm-nylon mesh was used to remove undigested material following tissue digestion. Cells were then washed once with RPMI 1640 medium and once with a calcium-free PBS. EGFP-positive (EGFP(+)) and negative (EGFP(−)) cells were isolated immediately by FACS, based on their green fluorescence intensity, as described previously (36). […]
Confluent MDCK-C11 cells were scrapped in ice-cold PBS, pelleted by centrifugation (500 g, 10 min) and then resuspended in 1 ml ice-cold Tris-acetate 0.2 M buffer (pH 7.5) containing protease inhibitors (Complete Mini, Roche, Indianapolis, Ind.) using a 25G needle. […] Protein concentration was determined using a nanodrop 2000 (Thermo scientific). […]

[6] = PD98059 50 μM pretreatment 30 minutes

O=C(O)c1cc(-c2ccc(C3CCNCC3)cc2)c2ccc(-c3ccc(C(F)(F)F)cc3)cc2c1 [PPTN, 4-[4-(piperidin-4-yl)phenyl]-7-[4-(trifluoromethyl)phenyl]-2-naphthoic acid]
increase in CCl2 mRNA expression induced by UDP-glucose ([1]; PPTN pretreatment 30 minutes): abolished
increase in IL8 mRNA expression induced by UDP-glucose ([1]; PPTN pretreatment 30 minutes): abolished
UDP-glucose induced increase in ERK1/2 phosphorylation (P2Y14 [2]): abolished
UDP-glucose dependent ERK phosphorylation in ICs isolated by FACS (FIG. 14) (P2Y14 [3]): inhibits

Nc1ncnc2c1ncn2[C@@H]1O[C@H](COP(=O)(O)OP(=O)(O)OP(=O)(O)O)[C@@H](O)[C@H]1O [ATP]
inhibition of [3H]UDP-glucose binding by unlabeled ligand (P2Y14 [4]): no significant inhibitory effect
displacement of [3H]UDP-glucose binding (P2Y14 [5]): not with ATP

COc1cccc(-c2cc(=O)c3ccccc3o2)c1N [PD98059]
UDP-glucose induced up regulation of CCL-2 mRNA [1, 6]: abolished
UDP-glucose induced up regulation of IL-8 mRNA [1, 6]: abolished
